According to PubChem BioAssay AID1963854 (Molecular Pharmacology Branch, DTP, NCI, 2024):

System: 186277-243-T-J2-PDC complex spheroid viability
Experiment: Anticancer human tumor 186277-243-T-J2-PDC patient-derived colon adenocarcinoma cell line growth inhibition [POLQ]
Conditions: for IC50: curve of first compound; for viability, T/C: stronger effect = lower value
In short: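 Patient-derived tumour cells were co-cultured with HUVEC and mesenchymal stem cells as multicellular spheroids at 37 °C. They were treated with POLQ inhibitors (novobiocin, ART-558, RP6685) alone or combined with other agents. Top concentrations were at or near clinical Cmax (otherwise 10 microM; SN-38 at 1 microM), decreasing in half-log steps.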

[1] = second compound 0.0316 µM, first compound 0.0316 µM
[2] = second compound 0.0316 µM, first compound 0.1 µM
[3] = second compound 0.0316 µM, first compound 0.316 µM
[4] = second compound 0.0316 µM, first compound 1 µM
[5] = second compound 0.0316 µM, first compound 3.16 µM
[6] = second compound 0.0316 µM, first compound 10 µM
[7] = second compound 0.1 µM, first compound 0.0316 µM
[8] = second compound 0.1 µM, first compound 0.1 µM
[9] = second compound 0.1 µM, first compound 0.316 µM
[10] = second compound 0.1 µM, first compound 1 µM
[11] = second compound 0.1 µM, first compound 3.16 µM
[12] = second compound 0.1 µM, first compound 10 µM
[13] = second compound 0.316 µM, first compound 0.0316 µM
[14] = second compound 0.316 µM, first compound 0.1 µM
[15] = second compound 0.316 µM, first compound 0.316 µM
[16] = second compound 0.316 µM, first compound 1 µM
[17] = second compound 0.316 µM, first compound 3.16 µM
[18] = second compound 0.316 µM, first compound 10 µM
[19] = second compound 1 µM, first compound 0.0316 µM
[20] = second compound 1 µM, first compound 0.1 µM
[21] = second compound 1 µM, first compound 0.316 µM
[22] = second compound 1 µM, first compound 1 µM
[23] = second compound 1 µM, first compound 3.16 µM
[24] = second compound 1 µM, first compound 10 µM
[25] = second compound 3.16 µM, first compound 0.0316 µM
[26] = second compound 3.16 µM, first compound 0.1 µM
[27] = second compound 3.16 µM, first compound 0.316 µM
[28] = second compound 3.16 µM, first compound 1 µM
[29] = second compound 3.16 µM, first compound 3.16 µM
[30] = second compound 3.16 µM, first compound 10 µM
[31] = second compound 10 µM, first compound 0.0316 µM
[32] = second compound 10 µM, first compound 0.1 µM
[33] = second compound 10 µM, first compound 0.316 µM
[34] = second compound 10 µM, first compound 1 µM
[35] = second compound 10 µM, first compound 3.16 µM
[36] = second compound 10 µM, first compound 10 µM
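Further: spheroids exposed to compounds for seven days.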
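Wherever viability, T/C is given: 100% = DMSO vehicle control viability.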

`COc1cc2cc(C(=O)CCC(=O)O)sc2cc1OC` + Cc1cccc(N(C)C(=O)C2C(O)CCN2c2nc(C)cc(C(F)(F)F)c2C#N)c1 showed an IC50 (second compound 0.0316 µM) greater than 10 µM, an IC50 (second compound 0.1 µM) greater than 10 µM and an IC50 (second compound 0.316 µM) greater than 10 µM. The IC50 (second compound 1 µM) was greater than 10 µM, the IC50 (second compound 3.16 µM) was greater than 10 µM and the IC50 (second compound 10 µM) was greater than 10 µM. For the same compound, the viability, T/C [1] was 97.6%, the viability, T/C [2] was 87.7% and the viability, T/C [3] was 95%. For the same compound, the viability, T/C [4] was 82.1%, the viability, T/C [5] was 111% and the viability, T/C [6] was 91.6%. The viability, T/C [7] was 88.8%, the viability, T/C [8] was 89.1% and the viability, T/C [9] was 90.5%. For the same compound, the viability, T/C [10] was 99.7%, the viability, T/C [11] was 105% and the viability, T/C [12] was 99.2%. For the same compound, the viability, T/C [13] was 101%, the viability, T/C [14] was 91.7% and the viability, T/C [15] was 96.6%. It also gave a viability, T/C [16] of 98.1%, a viability, T/C [17] of 93.5% and a viability, T/C [18] of 103%. It also gave a viability, T/C [19] of 93.2%, a viability, T/C [20] of 93.5% and a viability, T/C [21] of 102%. The viability, T/C [22] was 109%, the viability, T/C [23] was 101% and the viability, T/C [24] was 113%. For the same compound, the viability, T/C [25] was 106%, the viability, T/C [26] was 112% and the viability, T/C [27] was 92.4%. For the same compound, the viability, T/C [28] was 99.4%, the viability, T/C [29] was 118% and the viability, T/C [30] was 91.7%. It also gave a viability, T/C [31] of 107%, a viability, T/C [32] of 109% and a viability, T/C [33] of 112%. The viability, T/C [34] was 101%, the viability, T/C [35] was 93.9% and the viability, T/C [36] was 84.4%.

`CNCc1ccc(-c2[nH]c3cc(F)cc4c3c2CCNC4=O)cc1` + COC1C(OC(N)=O)C(O)C(Oc2ccc3c(O)c(NC(=O)c4ccc(O)c(CC=C(C)C)c4)c(=O)oc3c2C)OC1(C)C gave an IC50 (second compound 0.0316 µM) greater than 10 µM, an IC50 (second compound 0.1 µM) greater than 10 µM and an IC50 (second compound 0.316 µM) greater than 10 µM. For the same compound, the IC50 (second compound 1 µM) was greater than 10 µM, the IC50 (second compound 3.16 µM) was greater than 10 µM and the IC50 (second compound 10 µM) was greater than 10 µM. It also gave a viability, T/C [1] of 99%, a viability, T/C [2] of 96.1% and a viability, T/C [3] of 91%. The viability, T/C [4] was 85.8%, the viability, T/C [5] was 99.3% and the viability, T/C [6] was 116%. It also gave a viability, T/C [7] of 102%, a viability, T/C [8] of 96.3% and a viability, T/C [9] of 106%. The viability, T/C [10] was 105%, the viability, T/C [11] was 106% and the viability, T/C [12] was 99%. For the same compound, the viability, T/C [13] was 110%, the viability, T/C [14] was 99.8% and the viability, T/C [15] was 102%. For the same compound, the viability, T/C [16] was 93.1%, the viability, T/C [17] was 115% and the viability, T/C [18] was 115%. The viability, T/C [19] was 87.1%, the viability, T/C [20] was 107% and the viability, T/C [21] was 101%. It also gave a viability, T/C [22] of 104%, a viability, T/C [23] of 102% and a viability, T/C [24] of 101%. For the same compound, the viability, T/C [25] was 87%, the viability, T/C [26] was 104% and the viability, T/C [27] was 108%. For the same compound, the viability, T/C [28] was 99.6%, the viability, T/C [29] was 109% and the viability, T/C [30] was 112%. For the same compound, the viability, T/C [31] was 103%, the viability, T/C [32] was 105% and the viability, T/C [33] was 104%. The viability, T/C [34] was 93.1%, the viability, T/C [35] was 104% and the viability, T/C [36] was 112%.

In the case of `CCc1cc2c(N3CCc4c(cc(Cn5ccnc5)cc4-c4cn(C)nc4C(F)(F)F)C3=O)ccnc2c(OC)n1` + COC1C(OC(N)=O)C(O)C(Oc2ccc3c(O)c(NC(=O)c4ccc(O)c(CC=C(C)C)c4)c(=O)oc3c2C)OC1(C)C, the IC50 (second compound 0.0316 µM) is reported as greater than 10 µM, the IC50 (second compound 0.1 µM) is reported as greater than 10 µM and the IC50 (second compound 0.316 µM) is reported as greater than 10 µM. For the same compound, the IC50 (second compound 1 µM) was greater than 10 µM, the IC50 (second compound 3.16 µM) was greater than 10 µM and the IC50 (second compound 10 µM) was greater than 10 µM. It also gave a viability, T/C [1] of 94.6%, a viability, T/C [2] of 94% and a viability, T/C [3] of 116%. It also gave a viability, T/C [4] of 87.8%, a viability, T/C [5] of 92.6% and a viability, T/C [6] of 74.9%. For the same compound, the viability, T/C [7] was 97.5%, the viability, T/C [8] was 95.2% and the viability, T/C [9] was 111%. It also gave a viability, T/C [10] of 104%, a viability, T/C [11] of 86% and a viability, T/C [12] of 74.3%. The viability, T/C [13] was 83.3%, the viability, T/C [14] was 105% and the viability, T/C [15] was 98%. For the same compound, the viability, T/C [16] was 87.8%, the viability, T/C [17] was 89.7% and the viability, T/C [18] was 73.3%. It also gave a viability, T/C [19] of 94.1%, a viability, T/C [20] of 103% and a viability, T/C [21] of 86.5%. The viability, T/C [22] was 106%, the viability, T/C [23] was 107% and the viability, T/C [24] was 74.8%. The viability, T/C [25] was 107%, the viability, T/C [26] was 100% and the viability, T/C [27] was 99.1%. The viability, T/C [28] was 93.1%, the viability, T/C [29] was 89.1% and the viability, T/C [30] was 75.5%. The viability, T/C [31] was 101%, the viability, T/C [32] was 99.7% and the viability, T/C [33] was 107%. For the same compound, the viability, T/C [34] was 101%, the viability, T/C [35] was 109% and the viability, T/C [36] was 83.6%.

Compound `CC1COCCN1c1cc(C2(O)CC3CCC(C2)O3)c2cnn(-c3ccn[nH]3)c2n1` (stereo not drawn) + Nc1ccc(C#CCN(C(=O)Cc2ncc(C(F)(F)F)cc2C(F)(F)F)c2ccc(F)cc2)nn1 has an IC50 (second compound 0.0316 µM) of 0.0671 µM, an IC50 (second compound 0.1 µM) of 0.069 µM and an IC50 (second compound 0.316 µM) of 0.0713 µM. The IC50 (second compound 1 µM) was 0.0664 µM, the IC50 (second compound 3.16 µM) was 0.0644 µM and the IC50 (second compound 10 µM) was 0.0552 µM. It also gave a viability, T/C [1] of 107%, a viability, T/C [2] of 19.5% and a viability, T/C [3] of 9.32%. For the same compound, the viability, T/C [4] was 6.59%, the viability, T/C [5] was 9.6% and the viability, T/C [6] was 7.56%. It also gave a viability, T/C [7] of 113%, a viability, T/C [8] of 20.2% and a viability, T/C [9] of 8.44%. The viability, T/C [10] was 6.39%, the viability, T/C [11] was 8.6% and the viability, T/C [12] was 8.62%. It also gave a viability, T/C [13] of 116%, a viability, T/C [14] of 22.6% and a viability, T/C [15] of 8.74%. It also gave a viability, T/C [16] of 6.2%, a viability, T/C [17] of 8.36% and a viability, T/C [18] of 8.22%. It also gave a viability, T/C [19] of 109%, a viability, T/C [20] of 17.5% and a viability, T/C [21] of 8.98%. For the same compound, the viability, T/C [22] was 6.1%, the viability, T/C [23] was 8.12% and the viability, T/C [24] was 7.01%. It also gave a viability, T/C [25] of 102%, a viability, T/C [26] of 17.9% and a viability, T/C [27] of 8.53%. For the same compound, the viability, T/C [28] was 7.23%, the viability, T/C [29] was 8.02% and the viability, T/C [30] was 9.12%. The viability, T/C [31] was 85.1%, the viability, T/C [32] was 12.7% and the viability, T/C [33] was 8.17%. The viability, T/C [34] was 5.8%, the viability, T/C [35] was 8.58% and the viability, T/C [36] was 6.5%.
